{"source": "patent US9193718B2", "about": "“Quinazoline derivative and application thereof” (FUJIAN INSTITUTE OF RESEARCH ON THE STRUCTURE OF MATTER, …, priority 2012, dated 2015)"}
{"biological_target": "T1, Tyrosine kinase (EGFR) (Homo sapiens, UniProt P00533)", "T1 construct": "made in house", "experiment": "EGFR tyrosine kinase inhibition by Enzyme-Linked Immunosorbent assay", "assay_type": "biochemical", "settings": "compound at a concentration of 100 μM; ATP 5 μM; substrate poly(Glu,Tyr)4:1", "text": "Tyrosine kinase (EGFR) was expressed using a baculovirus expression system, and purified by using a Ni-NTA affinity chromatography. After tested, it was consistent with experimental standard. Poly(Glu,Tyr)4:1 (Sigma), Monoclonal Anti-Phosphotyrosine antibody PY99 (Santa Cruz), horseradish peroxidase-labeled goat anti-mouse IgG (Calbiochem), ATP, DTT, OPD (Amresco), microplates (Corning). Other reagents were all commercially available with analytical grade purity, which were not treated before use if no special instructions present. Isopropanol was dried with molecular sieves before use.\nQuinazoline compounds represented by formula (I) and their pharmaceutically acceptable salts according to the present invention are used as EGFR inhibitors. The activity of the particularized compounds for inhibiting EGFR was determined by Enzyme-Linked Immunosorbent assay.\nDetailed experimental procedure is as follows:\n(1) Kinase reaction substrate poly(Glu,Tyr)4:1 was diluted to 20 μg/mL with potassium-free PBS, and the microplates were coated. After the reaction was for 12-16 h at 37° C., the liquid in the wells was removed.\n(2) The plates were washed with T-PBS for three times, 10 min each time.\n(3) The microplates were dried in an oven at 37.\n(4) The samples to be tested were added into the wells of the coated microplates (wherein the samples to be tested were formulated to a 1×10^−2M stock solution with DMSO, and diluted to the desired concentration with reaction buffer before use. The resulted solution was added into the wells and then allowed to achieve the corresponding final concentration in 100 μL reaction system.\n(5) the addition of ATP and tested tyrosine kinases\nATP solution diluted with reaction buffer (the final concentration of ATP is 5 μM) and the tested tyrosine kinases solution diluted with reaction buffer were added. The total volume of the reaction is 100 μL. Meanwhile the negative control wells and the control wells without enzyme were set up.\n(6) The reaction system was placed in a wet box, and shaked for 1 hour at 37° C. shielding from light. After the reaction was complete, the plates were washed with T-PBS for three times.\n(7) Antibody PY99 was added into each well (100 μL/well); and the plates were shaked for 30 min at 37° C. After the reaction was complete, the plates were washed with T-PBS for three times.\n(8) 100 μL horseradish peroxidase-labeled goat anti-mouse IgG was added into each well, and the plates were shaked for 30 min at 37° C. The plates were washed with T-PBS for three times.\n(9) 100 μL OPD developing liquid was added in each well, and was reacted for 1-10 min at room temperature shielding from light.\n(10) 2M H2SO4 was added into each well to terminate the reaction. A490 value was determined using wavelength-tunable microplate reader. The inhibition ratio can be calculated by the following formula: […]\nAccording to the above-described activity test method, the activity of inhibiting EGFR enzyme of the compounds represented by formula (I) or salts thereof were calculated.", "units": {"EGFR inhibition rate (%)": "%"}}
{"compound": "c1ccc(-c2cc(COc3ncnc4ccccc34)on2)cc1", "note": "[Compound Q-1, 4-((3-phenyl-isoxazol-5-yl)-methoxy-)-quinazoline]", "EGFR inhibition rate (%)": 18.0}
{"compound": "COc1ccc(-c2cc(COc3ncnc4ccccc34)on2)cc1", "note": "[Compound Q-3]", "EGFR inhibition rate (%)": 7.3}
{"compound": "Clc1ccccc1-c1cc(COc2ncnc3ccccc23)on1", "note": "[Compound Q-4]", "EGFR inhibition rate (%)": 25.8}
{"compound": "Clc1ccc(-c2cc(COc3ncnc4ccccc34)on2)cc1", "note": "[Compound Q-5]", "EGFR inhibition rate (%)": 16.7}
{"compound": "Clc1ccc(-c2cc(COc3ncnc4ccccc34)on2)c(Cl)c1", "note": "[Compound Q-6]", "EGFR inhibition rate (%)": 22.7}
{"compound": "Brc1ccc(-c2cc(COc3ncnc4ccccc34)on2)cc1", "note": "[Compound Q-7]", "EGFR inhibition rate (%)": 15.7}
{"compound": "COc1cc2ncnc(OCc3cc(-c4ccccc4)no3)c2cc1OC", "note": "[Compound Q-15, 6,7-dimethoxy-4-((3-phenyl-isoxazol-5-yl)-methoxy-)-quinazoline]", "EGFR inhibition rate (%)": 30.7}
{"compound": "COc1ccc(-c2cc(COc3ncnc4cc(OC)c(OC)cc34)on2)cc1", "note": "[Compound Q-17]", "EGFR inhibition rate (%)": 47.0}
{"compound": "COc1cc2ncnc(OCc3cc(-c4ccccc4Cl)no3)c2cc1OC", "note": "[Compound Q-18]", "EGFR inhibition rate (%)": 1.2}
{"compound": "COc1cc2ncnc(OCc3cc(-c4ccc(Cl)cc4)no3)c2cc1OC", "note": "[Compound Q-19]", "EGFR inhibition rate (%)": 14.5}
{"compound": "COc1cc2ncnc(OCc3cc(-c4ccc(Cl)cc4Cl)no3)c2cc1OC", "note": "[Compound Q-20]", "EGFR inhibition rate (%)": 29.8}
{"compound": "COc1cc2ncnc(OCc3cc(-c4ccc(Br)cc4)no3)c2cc1OC", "note": "[Compound Q-21]", "EGFR inhibition rate (%)": 30.9}
{"compound": "COCCOc1cc2ncnc(OCc3cc(-c4ccccc4)no3)c2cc1OCCOC", "note": "[Compound Q-29, (6,7-bis(2-methoxyethoxy))-4-((3-phenyl-isoxazol-5-yl)-methoxy-)-quinazoline]", "EGFR inhibition rate (%)": 27.7}
{"compound": "COCCOc1cc2ncnc(OCc3cc(-c4ccc(C)cc4)no3)c2cc1OCCOC", "note": "[Compound Q-30, (6,7-bis(2-methoxyethoxy))-4-((3-(4-methylphenyl)-isoxazol-5-yl)-methoxy-)-quinazoline]", "EGFR inhibition rate (%)": 20.4}
{"compound": "COCCOc1cc2ncnc(OCc3cc(-c4ccc(OC)cc4)no3)c2cc1OCCOC", "note": "[Compound Q-31]", "EGFR inhibition rate (%)": 38.2}
{"compound": "COCCOc1cc2ncnc(OCc3cc(-c4ccccc4Cl)no3)c2cc1OCCOC", "note": "[Compound Q-32]", "EGFR inhibition rate (%)": 11.8}
{"compound": "COCCOc1cc2ncnc(OCc3cc(-c4ccc(Cl)cc4Cl)no3)c2cc1OCCOC", "note": "[Compound Q-34, (6,7-bis(2-methoxyethoxy))-4-((3-(2,4-dichlorophenyl)-isoxazol-5-yl)-methoxy-)-quinazoline]", "EGFR inhibition rate (%)": 7.8}
{"compound": "COCCOc1cc2ncnc(OCc3cc(-c4ccc(Br)cc4)no3)c2cc1OCCOC", "note": "[Compound Q-35]", "EGFR inhibition rate (%)": 6.4}
{"compound": "(6,7-bis(2-methoxyethoxy))-4-((3-(4-chlorophenyl)-isoxazol-5-yl))-methoxy-)-quinazoline [Compound Q-33]", "EGFR inhibition rate (%)": 14.1}
